Earlier results, collected in patent US20050008712A1, “Compositions incorporating high-caffeine green tea extract and related methods for promoting healthy body weight” (priority 2003, published 2005).

Conditions: rats

In the case of `O=C(O[C@@H]1Cc2c(O)cc(O)cc2O[C@@H]1c1cc(O)c(O)c(O)c1)c1cc(O)c(O)c(O)c1` [EGCG, (−)-epigallo-catechin-3-gallate], the “loss of body weight” value (after daily injections for a week) is given as 20%, the blood cholesterol (injected) is given as “significantly reduces” and the blood triglycerides (injected) is given as “significantly reduces”. The body weight (injected) was “significantly reduces” and the food intake (injected) was “significantly reduces”.
